Assay results published in patent US8569362B2, “Polyketide molecules as anticancer agents” (Pierre Fabre Medicament, priority 2009, dated 2013).

Tests used:
Type in all cases: cell-based
MCF7 (breast cancer) = test: Growth inhibition of human cancer cell lines, ATP-lite luminescence, MCF7; details: MCF7, 48 h incubation, cell survival by ATP luminescence
Method: (§1) The cancerous cells [lines A549 (non small cell lung cancer), BxPC3 (cancer of the pancreas), LoVo (colon cancer), MCF7 (breast cancer), Namalwa (Burkitt's lymphoma) and SK-OV-3 (ovarian cancer)] were cultured in a 96-well plate in RPMI 1640 medium without phenol red (Seromed) to which was added 10% of foetal veal serum (100 μl/well, 1 to 3.10^4 cells/ml depending on the considered line). After an incubation of 24 h at 37° C. in an incubator with 5% CO2, the medium was replaced by that containing the compound to be tested (molecule I-1), after which the plates were incubated for an additional 48 h. Cell survival was evaluated by measurement of the luminescence after release of ATP in the medium using the cell lysis solutions, luciferase and luciferine contained in the ATP-lite-MTM kit, as recommended by the manufacturer (Packard, Rungis, France). Each experimental condition was tested at least three times in sextuplets. The table below presents the IC50 data (expressed in M) of the molecule I-1, as a function of the different cell lines tested.

[1] = test system: A549 (non small cell lung cancer); test: Growth inhibition of human cancer cell lines, ATP-lite luminescence, A549; details: A549, 48 h incubation, cell survival by ATP luminescence
Method: as §1

[2] = test system: BxPC3 (cancer of the pancreas); test: Growth inhibition of human cancer cell lines, ATP-lite luminescence, BxPC3; details: BXPC-3, BxPC3, 48 h incubation, cell survival by ATP luminescence
Method: as §1

[3] = test system: HeLa tumoral cells (human carcinoma); test: Cellular phenotype (immunofluorescence and microscopy; α-tubulin, γ-tubulin, DAPI); details: 24 h treatment
Method: The HeLa tumoral cells (human carcinoma) were cultured for 24 h on 12 mm diameter glass slides, placed in 24-well culture plates (7.10^3 cells per well).
The cells were then treated for a new period of 24 h by the molecule I-1 at the tested concentrations. […] The DNA was labelled with DAPI (0.2 μg/ml—15 minutes—37° C.). After the different labellings, the slides were dried and mounted in a Vectashield mounting liquid (AbCys, France), before being observed through an epi-fluorescence microscope (Axiovert 200M; objective×63 Plan Apochromat NA, 1.4; ZEISS, France).

SK-OV-3 (ovarian cancer) = test: Growth inhibition of human cancer cell lines, ATP-lite luminescence, SK-OV-3; details: SK-OV-3, 48 h incubation, cell survival by ATP luminescence
Method: as §1

[4] = test system: Namalwa (Burkitt's lymphoma); test: Growth inhibition of human cancer cell lines, ATP-lite luminescence, Namalwa; details: 48 h incubation, cell survival by ATP luminescence
Method: as §1

LoVo (colon cancer) = test: Growth inhibition of human cancer cell lines, ATP-lite luminescence, LoVo; details: 48 h incubation, cell survival by ATP luminescence
Method: as §1

For COC(CCC(C)C1(O)CC(C(C)/C=C(C)/C=C(\C)C(O)C(C)C(O)C(C)C(OC)C(C)/C=C/C=C/C=C/C(=O)O)OC(=O)C1O)CC(CC(O)C(C)C/C=C/C(C)C1CC(C(C)CCC(C)O)C(O)C(=O)O1)OC (stereo not shown) [molecule I-1], which IC50 (MCF7 (breast cancer)) is on record?
The IC50 was 0.011 nM.

What about the IC50 [1] of the same compound?
Its IC50 is 0.82 nM.

And the IC50 [2]?
The IC50 was 0.47 nM.

And the “Centrosomes of interphasic cells (γ-tubulin labelling)” value ([3]; between 5.10^−9M and 5.10^−8M)?
The value was “often separated and normally labelled by γ-tubulin”.

What about the “Microtubular cytoskeleton of interphasic cells (labelling by α-tubulin)” value ([3]; between 5.10^−9M and 5.10^−8M) of the same compound?
Its value is “devoid of microtubular cytoskeleton”.

What about the “Centrosomes of mitotic cells (γ-tubulin labelling)” value ([3]; between 10^−9M and 5.10^−8M) of the same compound?
Its value is “normally present and labelled by γ-tubulin”.

What about the “Mitotic cells: mitotic block and microtubules (α-tubulin labelling)” value ([3]; dose effect between 10^−9M and 5.10^−8M) of the same compound?
Its value is “blocked in prometaphase without microtubules”.

What about the IC50 (SK-OV-3 (ovarian cancer)) of the same compound?
The IC50 was 0.33 nM.

What about the IC50 [4] of the same compound?
Its IC50 is 1.1 nM.

What about the IC50 (LoVo (colon cancer)) of the same compound?
The IC50 was 0.081 nM.
